These results are taken from patent publication US11597702B2, “Substituted pyrazoles FFA4/GPR120 receptor agonists” (AXXAM S.P.A., priority 2018, dated 2023).

SMILES strings stand for the structures.

This test concerns the target T1, GPR120 (Homo sapiens, UniProt Q5NUL3).
T1 construct: expressed in transfected cells; host or cells: CHO mitoPhotinaGPR120 cells
T1 sequence (Q5NUL3 1-361): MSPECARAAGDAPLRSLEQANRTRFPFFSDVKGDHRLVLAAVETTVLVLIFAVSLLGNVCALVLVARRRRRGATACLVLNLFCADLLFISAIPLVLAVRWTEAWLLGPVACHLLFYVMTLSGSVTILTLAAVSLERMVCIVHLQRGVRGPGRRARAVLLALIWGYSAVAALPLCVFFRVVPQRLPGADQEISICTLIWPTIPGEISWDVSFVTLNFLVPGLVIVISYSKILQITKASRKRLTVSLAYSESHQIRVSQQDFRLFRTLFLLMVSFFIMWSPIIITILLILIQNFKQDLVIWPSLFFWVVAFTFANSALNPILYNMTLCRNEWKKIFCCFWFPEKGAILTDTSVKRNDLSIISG
The experiment in a line: GPR120 agonism in CHO mitoPhotinaGPR120 cell based assay with fluorescent (Fluo-8 calcium, FLIPRTetra) readout, Agonist Mode, dose response. Particulars: CHO mitoPhotinaGPR120 cells, Fluo-8 No Wash Ca2+ dye, dose response in quadruplicate, 0.0033% fatty acid free BSA.
In general, EC50 refers to the concentration at which the effect is half-maximal. Consider `N#Cc1cnn(-c2ccccc2)c1COc1ccc(CCO)cc1` [Example 129, 5-[[4-(2-hydroxyethyl)phenoxy]methyl]-1-phenyl-pyrazole-4-carbonitrile], for which the EC50 was found to be 3.33 µM.

Take `N#Cc1cnn(-c2ccccc2)c1COc1ccc(CCCO)cc1` [Example 130, 5-[[4-(3-hydroxypropyl)phenoxy]methyl]-1-phenyl-pyrazole-4-carbonitrile]: the EC50 came to 0.19 µM.

On to `Cc1nn(-c2ccccc2)c(COc2c(F)cc(CCC(=O)O)cc2F)c1C#N` [Example 133, 3-[4-[(4-cyano-5-methyl-2-phenyl-pyrazol-3-yl)methoxy]-3,5-difluoro-phenyl]propanoic acid], for which the EC50 came to 9.73 µM.

Turning to `Cc1nn(-c2ccccc2)c(COc2ccc(CCC3CCNCC3)cc2)c1C#N` [Example 136, 3-methyl-1-phenyl-5-[[4-[2-(4-piperidyl)ethyl]phenoxy]methyl]pyrazole-4-carbonitrile], the EC50 is 17.7 µM.

Take `Cc1nn(-c2ccccc2)c(COc2ccc(-c3nc(CO)cs3)cc2)c1C#N` [Example 146, 5-[[4-[4-(hydroxymethyl)thiazol-2-yl]phenoxy]methyl]-3-methyl-1-phenyl-pyrazole-4-carbonitrile]: the EC50 turned out to be 3.36 µM.

For `Cc1nn(-c2ccccc2)c(COc2ccc(CO)cc2C(F)(F)F)c1C#N` [Example 147, 5-[[4-(hydroxymethyl)-2-(trifluoromethyl)phenoxy]methyl]-3-methyl-1-phenyl-pyrazole-4-carbonitrile], the EC50 is 1.49 µM.

As for `Cc1nn(-c2ccccn2)c(COc2ccc(CCCO)cc2)c1C#N` [Example 149, 5-[[4-(3-hydroxypropyl)phenoxy]methyl]-3-methyl-1-(2-pyridyl)pyrazole-4-carbonitrile], the EC50 is 0.15 µM.

`Cc1ccc(-n2nc(C)c(C#N)c2COc2ccc(CCCO)cc2)cc1` [Example 150, 5-[[4-(3-hydroxypropyl)phenoxy]methyl]-3-methyl-1-(p-tolyl)pyrazole-4-carbonitrile]: the EC50 turned out to be 0.15 µM.

For the molecule `CCc1ccc(-n2nc(C)c(C#N)c2COc2ccc(CCCO)cc2)cc1` [Example 151, 1-(4-ethylphenyl)-5-[[4-(3-hydroxypropyl)phenoxy]methyl]-3-methyl-pyrazole-4-carbonitrile], the EC50 turned out to be 0.24 µM.

For the molecule `Cc1nn(-c2ccc(Cl)cc2)c(COc2ccc(CCCO)cc2)c1C#N` [Example 152, 1-(4-chlorophenyl)-5-[[4-(3-hydroxypropyl)phenoxy]methyl]-3-methyl-pyrazole-4-carbonitrile], the EC50 was found to be 0.51 µM.

On to `Cc1nn(C2CCCC2)c(COc2ccc(CCCO)cc2)c1C#N` [Example 153, 1-cyclopentyl-5-[[4-(3-hydroxypropyl)phenoxy]methyl]-3-methyl-pyrazole-4-carbonitrile], for which the EC50 was 0.18 µM.

Regarding `Cc1nn(-c2ccc(F)cn2)c(COc2ccc(CCCO)cc2)c1C#N` [Example 154, 1-(5-fluoro-2-pyridyl)-5-[[4-(3-hydroxypropyl)phenoxy]methyl]-3-methyl-pyrazole-4-carbonitrile], the EC50 was found to be 0.21 µM.

As to `Cc1nn(-c2ccc(Cl)cn2)c(COc2ccc(CCCO)cc2)c1C#N` [Example 155, 1-(5-chloro-2-pyridyl)-5-[[4-(3-hydroxypropyl)phenoxy]methyl]-3-methyl-pyrazole-4-carbonitrile], the EC50 was determined as 0.81 µM.

Regarding `Cc1ccc(-n2nc(C)c(C#N)c2COc2ccc(CCCO)cc2)nc1` [Example 156, 5-[[4-(3-hydroxypropyl)phenoxy]methyl]-3-methyl-1-(5-methyl-2-pyridyl)pyrazole-4-carbonitrile], the EC50 worked out at 0.19 µM.

Take `COc1ccc(-n2nc(C)c(C#N)c2COc2ccc(CCCO)cc2)nc1` [Example 157, 5-[[4-(3-hydroxypropyl)phenoxy]methyl]-1-(5-methoxy-2-pyridyl)-3-methyl-pyrazole-4-carbonitrile]: the EC50 amounted to 0.28 µM.

Consider `Cc1nn(-c2ccccn2)c(COc2c(F)cc(CCCO)cc2F)c1C#N` [Example 158, 5-[[2,6-difluoro-4-(3-hydroxypropyl)phenoxy]methyl]-3-methyl-1-(2-pyridyl)pyrazole-4-carbonitrile], for which the EC50 amounted to 0.13 µM.

`Cc1ccc(-n2nc(C)c(C#N)c2COc2c(F)cc(CCCO)cc2F)cc1` [Example 159, 5-[[2,6-difluoro-4-(3-hydroxypropyl)phenoxy]methyl]-3-methyl-1-(p-tolyl)pyrazole-4-carbonitrile]: the EC50 stood at 0.19 µM.

On to `CCc1ccc(-n2nc(C)c(C#N)c2COc2c(F)cc(CCCO)cc2F)cc1` [Example 160, 5-[[2,6-difluoro-4-(3-hydroxypropyl)phenoxy]methyl]-1-(4-ethylphenyl)-3-methyl-pyrazole-4-carbonitrile], for which the concentration for a half-maximal effect (EC50) came out at 0.3 µM.

Turning to `COc1ccc(-n2nc(C)c(C#N)c2COc2c(F)cc(CCCO)cc2F)cc1` [Example 161, 5-[[2,6-difluoro-4-(3-hydroxypropyl)phenoxy]methyl]-1-(4-methoxyphenyl)-3-methyl-pyrazole-4-carbonitrile], the EC50 was determined as 0.23 µM.

With `Cc1nn(-c2ccc(Cl)cc2)c(COc2c(F)cc(CCCO)cc2F)c1C#N` [Example 162, 1-(4-chlorophenyl)-5-[[2,6-difluoro-4-(3-hydroxypropyl)phenoxy]methyl]-3-methyl-pyrazole-4-carbonitrile], the EC50 turned out to be 0.43 µM.

Consider `Cc1nn(C2CCCC2)c(COc2c(F)cc(CCCO)cc2F)c1C#N` [Example 163, 1-cyclopentyl-5-[[2,6-difluoro-4-(3-hydroxypropyl)phenoxy]methyl]-3-methyl-pyrazole-4-carbonitrile], for which the EC50 was 0.099 µM.

With `Cc1nn(-c2ccc(F)cn2)c(COc2c(F)cc(CCCO)cc2F)c1C#N` [Example 164, 5-[[2,6-difluoro-4-(3-hydroxypropyl)phenoxy]methyl]-1-(5-fluoro-2-pyridyl)-3-methyl-pyrazole-4-carbonitrile], the EC50 was 0.19 µM.

With `Cc1ccc(-n2nc(C)c(C#N)c2COc2c(F)cc(CCCO)cc2F)nc1` [Example 165, 5-[[2,6-difluoro-4-(3-hydroxypropyl)phenoxy]methyl]-3-methyl-1-(5-methyl-2-pyridyl)pyrazole-4-carbonitrile], the EC50 was 0.17 µM.

Take `Cc1nn(-c2ccc(Cl)cn2)c(COc2c(F)cc(CCCO)cc2F)c1C#N` [Example 166, 1-(5-chloro-2-pyridyl)-5-[[2,6-difluoro-4-(3-hydroxypropyl)phenoxy]methyl]-3-methyl-pyrazole-4-carbonitrile]: the EC50 was determined as 0.22 µM.

For the molecule `COc1ccc(-n2nc(C)c(C#N)c2COc2c(F)cc(CCCO)cc2F)nc1` [Example 167, 5-[[2,6-difluoro-4-(3-hydroxypropyl)phenoxy]methyl]-1-(5-methoxy-2-pyridyl)-3-methyl-pyrazole-4-carbonitrile], the EC50 is 0.21 µM.

With `COc1ccc(S(=O)(=O)Nc2c(C)cc(C)cc2C)cc1` [GSK137639A, reference compound], the EC50 was determined as 4.48 µM.
